3 molecules from the NIST ThermoML archive (doi:10.1016/j.jct.2014.02.024) can be followed below.

The conditions of series [1]: 101.3 kPa, Liquid; for viscosity: Capillary tube (Ostwald / Ubbelohde) method; for mass density: Pycnometric method.
A short description of series [2]: mn = molality of the nth substance listed, in mol/kg. Conditions: 101.3 kPa, Liquid, m2 = 0; for viscosity: Capillary tube (Ostwald / Ubbelohde) method; for mass density: Pycnometric method.

± gives the expanded uncertainty stated by the source.

For orientation: viscosity means the internal friction of a fluid under shear. For orientation: mass density means the mass of a sample divided by its volume. `O` [water]: the values for the viscosity in series [1] (275.15 K), in series [1] (277.15 K) and in series [1] (279.15 K) were 1.674 ± 0.036 mPa·s, 1.567 ± 0.034 mPa·s and 1.472 ± 0.032 mPa·s, respectively. Also, the mass density in series [1] (275.15 K) was 999.94 ± 0.92 kg/m3; in series [1] (277.15 K) it was 999.97 ± 0.92 kg/m3; in series [1] (279.15 K) it was 999.94 ± 0.92 kg/m3.

Take `O` [water] + O=C(O)c1cccnc1: the figures for the viscosity in series [2] (275.15 K), in series [2] (277.15 K) and in series [2] (279.15 K) were 1.674 ± 0.036 mPa·s, 1.567 ± 0.034 mPa·s and 1.472 ± 0.032 mPa·s, respectively. Besides, the mass density in series [2] (275.15 K) turned out to be 999.94 ± 0.92 kg/m3; in series [2] (277.15 K), 999.97 ± 0.92 kg/m3; in series [2] (279.15 K) it was 999.94 ± 0.92 kg/m3.

Consider `O` [water] + NC(=O)c1cccnc1, for which the viscosity in series [2] (275.15 K) is 1.674 ± 0.036 mPa·s; in series [2] (277.15 K), 1.567 ± 0.034 mPa·s; in series [2] (279.15 K) it was 1.472 ± 0.032 mPa·s. Besides, the mass density in series [2] (275.15 K) turned out to be 999.94 ± 0.92 kg/m3; in series [2] (277.15 K), 999.97 ± 0.92 kg/m3; in series [2] (279.15 K), 999.94 ± 0.92 kg/m3.
